Usually inhibition stands for the relative decrease from the control value, in per cent. Low values mean a response near the control, high ones a response far below the control.

The record followed here is US5093325A, “Combination preparation having antithrombotic action” (priority 1989, dated 1992).

For test [1], the system named is collagen-stimulated blood platelets. As to the kind of experiment: Inhibition of collagen-induced thrombocytopenia in anesthetized guinea pigs. It counts as in vivo, guinea pig. Particulars: for % Thrombocytopenia Inhibition: average ± SEM. An excerpt:
Reversible thrombocytopenias are produced on anesthetized guinea pigs by injection of collagen ([…] i.v.). The cause of these thrombocytopenias is an aggregate formation of the collagen-stimulated blood platelets and the embolization of these platelet aggregates in the lungs, where they then lodge and thus cause the observed drops of the platelet count in the blood (thrombocytopenias).

Test [2] has as its system occluding platelet thrombi on mesenteric arterioles. As to the kind of experiment: Thrombogenic ADP concentration for occluding platelet thrombi on previously traumatized mesenteric arterioles. It counts as in vivo, guinea pig. Particulars: for Thrombogenic ADP Concentration, Increase: N 5, average. Here is the method: A mesenteric loop is placed on an anesthetized guinea pig and is superfused with a moderately heated solution of common salt. Under intravital microscopic control the vascular wall of a mesenteric arteriole (020-50 m) is traumatized by a series of electric pulses. By subsequent local application of increasing concentrations of ADP (adenosine diphosphate) solution a thrombogenic ADP concentration is determined, at which an occluding platelet thrombus forms on the pretraumatized site of the arteriole. This thrombogenic ADP concentration produces vascular-specific and reproducible thrombi in the respective arteriole.

Test [3] deals with thrombus formation in carotid arteries. The test can be described thus: Thrombus formation in carotid arteries previously traumatized by pressure + cold (thrombus hemoglobin content). Format: in vivo, guinea pig. Here is the method: A 2-cm-long piece of the external left carotid artery on an anesthetized guinea pig is carefully exposed and drawn over a small metal plate. Then the vascular wall is weighted down over a length of 1 cm for 3 minutes with a steel stamp weighing 200 g, cooled to -15° C. In this way, a massive local vascular trauma is caused on a large artery and a red thrombus develops on the traumatized site. Three hours after the trauma the traumatized segment and an equally long piece of the contralateral artery are removed, asked and put in hemoglobin test reagent. The hemoglobin contents of the two segments are determined 24 hours later. The net hemoglobin content of the red thrombus as the measurement of the thrombus size is calculated from the difference of these hemoglobin contents.

The test system of another test is human platelets. The test can be described thus: Inhibition of collagen-stimulated aggregation of human platelets in platelet-rich plasma (aggregometer). It counts as cell-based. How it is done:
(§1) Human platelet-rich plasma (PRP) is incubated in an aggregometer at 37° C. and mixed with […] of collagen to cause aggregation. […] The course of the aggregation is recorded in the aggregometer. 10 minutes after collagen addition, the samples are centrifuged at 3000 rpm and the supernatant is tested with an enzyme linked immunosorbent assay (ELISA) for its content of plasminogen activator inhibitor-1 (PAI-1) and with a radioimmunoassay (RIA) for the content of platelet-derived growth factor (PDGF).

For test [4], the system named is PAI-1 release of human platelets. The test can be described thus: Inhibition of PAI-1 release from collagen-stimulated human platelets (ELISA). It counts as cell-based. Particulars: Platelet, N = 6, % of control. How it is done: as §1
Background: In an ELISA, binding on a coated surface is turned into a signal by an enzyme label.

Test [5] concerns PDGF release of human platelets. The test can be described thus: Inhibition of PDGF release from collagen-stimulated human platelets (RIA). It counts as cell-based. The conditions noted are these: Platelet, N = 6, % of control. How it is done: as §1

With `CC(=O)Oc1ccccc1C(=O)O` [ASA, acetylsalicylic acid], the “thrombocytopenia inhibition, in words” value in test [1] (ASA 0.5 mg/kg i.v.) is given as “weakly inhibiting”. For the same compound, in test [1] (ASA 0.5 mg/kg i.v., N 8, p less than 0.05 vs control), the “% Thrombocytopenia Inhibition” value is listed as 17 ± 3%. For the same compound, the “change of thrombogenic ADP concentration, in words” value in test [2] (ASA 10 mg/kg i.v.) is “does not change the thrombogenic ADP concentration”. Besides, the “Thrombogenic ADP Concentration, Increase” value in test [2] (ASA 10 mg/kg, SEM ±0.13, n.s.) was 0.06. Also, in test [3] (ASA 5 mg/kg i.v.), the “effect on thrombus formation in the carotid artery, in words” value was “no significant effect”. The Thrombus Hb content, Median in test [3] (ASA 5 mg/kg, N 10, Q 25/Q 75 -0.1/13.8, n.s., control 8.6) is 3.4 µmol.

Regarding `CCC#CC[C@H](C)[C@H](O)C#C[C@@H]1[C@H]2C/C(=C/COCC(=O)O)C[C@H]2C[C@H]1O` [Cicaprost], the “platelet aggregation inhibition, in words” value in the test on human platelets (Cicaprost 10^-10 or 10^-9 M, separately) is “ineffective”. In addition, the inhibition at 0.1 µM with human platelets (Homo sapiens, Platelet, Cicaprost 10^-7 M, N = 6, % of control) is 95 ± 3%; in test [4] (Cicaprost 10^-7 M), 80 ± 5%; in test [5] (Cicaprost 10^-7 M) it was 81 ± 1%. Moreover, the inhibition at 0.01 µM stood at 95 ± 4% with human platelets (Homo sapiens, Platelet, Cicaprost 10^-8 M, N = 6, % of control); 72 ± 3% in test [4] (Cicaprost 10^-8 M); 81 ± 3% in test [5] (Cicaprost 10^-8 M). For the same compound, the inhibition at 0.001 µM in the test with human platelets (Homo sapiens, Platelet, Cicaprost 10^-9 M, N = 6, % of control) stood at 0%; in test [4] (Cicaprost 10^-9 M) it was 0%; in test [5] (Cicaprost 10^-9 M) it was 3 ± 3%. The inhibition at 0.0001 µM came to 4 ± 3% in the test on human platelets (Homo sapiens, Platelet, Cicaprost 10^-10 M, N = 6, % of control); 0% in test [4] (Cicaprost 10^-10 M); 1 ± 2% in test [5] (Cicaprost 10^-10 M). Moreover, the “thrombocytopenia inhibition, in words” value in test [1] (Cicaprost 1 ng/kg/min i.v., separately) is on record as “ineffective”. Moreover, the “% Thrombocytopenia Inhibition” value in test [1] (Cicaprost 1 ng/kg/min i.v., N 6, n.s.) is recorded as 8 ± 5%; in test [1] (Cicaprost 3 ng/kg/min, N 6, p less than 0.05 vs control) it was 36 ± 4%. Also, the “higher dose of Cicaprost alone needed for the effect of the combination” value in test [1] (vs 1 ng/kg/min i.v. in combination with ASA 0.5 mg/kg) is “three-fold higher dose”. Moreover, the “higher dosage of Cicaprost alone needed for the antithrombotic action of the combination” value in test [2] (100 ng/kg/min i.v. alone vs 10 ng/kg/min in combination) turned out to be 10 fold. Moreover, the “change of thrombogenic ADP concentration, in words” value in test [2] (Cicaprost 10 ng/kg/min i.v.) was “not significantly effective”. The “Thrombogenic ADP Concentration, Increase” value in test [2] (Cicaprost 10 ng/kg/min, SEM ±0.39, n.s.) is given as 0.36; in test [2] (Cicaprost 30 ng/kg/min, SEM ±0.20, p less than 0.05 vs control), 1.02; in test [2] (Cicaprost 100 ng/kg/min, SEM ±0.20, p less than 0.05 vs control), 1.32. Moreover, the “increase of the thrombogenic ADP concentration” value in test [2] (Cicaprost 100 ng/kg/min i.v., N=5) was found to be 1.32±0.2 log M. In addition, the Thrombus Hb content, Median in test [3] (Cicaprost 0.3 ng/kg/min, N 10, Q 25/Q 75 8.0/25.0, n.s., control 8.6) was determined as 12.4 µmol; in test [3] (Cicaprost 1.0 ng/kg/min, N 10, Q 25/Q 75 0.2/5.8, significant vs control 8.6) it was 1.9 µmol; in test [3] (Cicaprost 3.0 ng/kg/min, N 11, Q 25/Q 75 -0.4/0.7, significant vs control 8.6), 0 µmol. In addition, in test [3] (dosage printed C.3 ng/kg/min i.v.), the “effect on thrombus formation in the carotid artery, in words” value is recorded as “significantly effective”.
